Experimental data: patent US20190100534A1, “Cephem Compounds with Latent Reactive Groups” (Gladius Pharmaceuticals, Inc., priority 2017, published 2019)

How the values were obtained:
[1] = system: Pseudomonas aeruginosa PA-RR-(G8062859); assay: MIC determination; assay type: cell-based; details: Pseudomonas aeruginosa; PA-RR-(G8062859); CAMH broth, 20 μM Apo-Transferrin, 37° C., 18 hours; read-out: Minimum Inhibitory Concentrations, PA-RR-(G8062859)
Summary of the method: (§1)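 Broth microdilution in cation-adjusted Mueller-Hinton broth with 20 μM apo-transferrin, two-fold compound series from 64 μg/mL, inoculum adjusted to 0.5 McFarland from 4-5 h LB cultures. Plates incubated 18 h at 37 °C. MIC taken as lowest concentration leaving a clear well.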

[2] = system: Pseudomonas aeruginosa PA-RR-(purple Fre D); assay: MIC determination; assay type: cell-based; details: Pseudomonas aeruginosa, CAMH broth, 20 μM Apo-Transferrin, 37° C., 18 hours, read-out: Minimum Inhibitory Concentrations, PA-RR-(purple Fre D)
Summary of the method: as §1

[3] = system: EC (RR -1); assay: MIC determination; assay type: cell-based, Escherichia coli; details: CAMH broth, 20 μM Apo-Transferrin, 37° C., 18 hours
Experimental: (§2) Sterile technique was used throughout these experiments. Suspensions of organisms were removed from storage (−80° C.) and partially thawed. Partially thawed organisms (1 μL) were inoculated into 3 mL sterile LB Broth in a sterile culture tube and capped, then cultured at 37° C. with shaking for 4-5 hours until the optical density at 600 nm (OD600) was greater than 0.1 on a single beam spectrophotometer.
(§3) The concentration of organisms was adjusted to 0.08-0.1 OD600 (0.5 McFarland units) by dilution with sterile cation-adjusted Meuller-Hinton (CAMH) broth. The suspensions were used within 30 minutes of preparation.
(§4) A stock solution was made of each test compound by measuring 6.4 mg of the compound on an analytical balance and dissolving it in DMSO (1 mL) to get a transparent solution. The solutions were stored at −20° C. and thawed prior to use.
(§5) Sterile CAMH broth (200 μL) containing 20 μM Apo-Transferrin was pipetted into the first row of 8 columns of a sterile, round-bottomed, transparent, 96-well microplate using an 8-channel pipette equipped with sterile tips. One hundred μL was pipetted into the wells of the remaining 11 rows.
(§6) With an 8-channel pipette equipped with sterile tips, 100 μL of the first row solution was transferred to the second row and mixed. The process was repeated for the second to third rows and continued through row 11. One hundred μL from row 11 was removed and discarded so that all 12 rows contained 100 μL. Row 12 contained no compound and rows 1-11 contained 64, 32, 16, 8, 4, 2, 1, 0.5, 0.25, 0.125, […] of a given compound.
(§7) Inoculant suspensions (0.5 μL) were added to the 12 wells of each column. The plates were then covered and incubated at 37° C. overnight for 18 hours.
(§8) For each organism the MIC was determined by identifying the transparent well with the lowest test compound concentration.

[4] = system: EC (RR -2); assay: MIC determination; assay type: cell-based, Escherichia coli; details: CAMH broth, 20 μM Apo-Transferrin, 37° C., 18 hours
Experimental: as §2, §3, §4, §5, §6, §7, §8

[5] = system: EC (URMC-1); assay: MIC determination; assay type: cell-based, Escherichia coli; details: Escherichia coli, CAMH broth, 20 μM Apo-Transferrin, 37° C., 18 hours, read-out: Minimum Inhibitory Concentrations, EC (URMC-1)
Experimental: as §2, §3, §4, §5, §6, §7, §8

[6] = system: EC (URMC-2); assay: MIC determination; assay type: cell-based, Escherichia coli; details: Escherichia coli, CAMH broth, 20 μM Apo-Transferrin, 37° C., 18 hours, read-out: Minimum Inhibitory Concentrations, EC (URMC-2)
Experimental: as §2, §3, §4, §5, §6, §7, §8

[7] = system: EC (URMC-3); assay: MIC determination; assay type: cell-based, Escherichia coli; details: Escherichia coli, CAMH broth, 20 μM Apo-Transferrin, 37° C., 18 hours, read-out: Minimum Inhibitory Concentrations, EC (URMC-3)
Experimental: as §2, §3, §4, §5, §6, §7, §8

[8] = system: EC(ATCC NDM-1); assay: MIC determination; assay type: cell-based, Escherichia coli; details: Escherichia coli, CAMH broth, 20 μM Apo-Transferrin, 37° C., 18 hours, read-out: Minimum Inhibitory Concentrations, EC(ATCC NDM-1)
Experimental: as §2, §3, §4, §5, §6, §7, §8

[9] = system: EC(JMI OXA-48); assay: MIC determination; assay type: cell-based, Escherichia coli; details: Escherichia coli, CAMH broth, 20 μM Apo-Transferrin, 37° C., 18 hours, read-out: Minimum Inhibitory Concentrations, EC(JMI OXA-48)
Experimental: as §2, §3, §4, §5, §6, §7, §8

[10] = system: EC(KB1 CTX-M-15); assay: MIC determination; assay type: cell-based, Escherichia coli; details: Escherichia coli, CAMH broth, 20 μM Apo-Transferrin, 37° C., 18 hours, read-out: Minimum Inhibitory Concentrations, EC(KB1 CTX-M-15)
Experimental: as §2, §3, §4, §5, §6, §7, §8

[11] = system: EC(KB2 CTX-M-15); assay: MIC determination; assay type: cell-based, Escherichia coli; details: Escherichia coli, CAMH broth, 20 μM Apo-Transferrin, 37° C., 18 hours, read-out: Minimum Inhibitory Concentrations, EC(KB2 CTX-M-15)
Experimental: as §2, §3, §4, §5, §6, §7, §8

[12] = system: KP (ATCC KPC-3); assay: MIC determination; assay type: cell-based, Klebsiella pneumoniae; details: CAMH broth, 20 μM Apo-Transferrin, 37° C., 18 hours
Experimental: as §2, §3, §4, §5, §6, §7, §8

[13] = system: KP (GJ 5659 TEM-26); assay: MIC determination; assay type: cell-based, Klebsiella pneumoniae; details: CAMH broth, 20 μM Apo-Transferrin, 37° C., 18 hours
Experimental: as §2, §3, §4, §5, §6, §7, §8

[14] = system: KP (RR -1); assay: MIC determination; assay type: cell-based, Klebsiella pneumoniae; details: CAMH broth, 20 μM Apo-Transferrin, 37° C., 18 hours
Experimental: as §2, §3, §4, §5, §6, §7, §8

[15] = system: KP (URMC-1); assay: MIC determination; assay type: cell-based, Klebsiella pneumoniae; details: CAMH broth, 20 μM Apo-Transferrin, 37° C., 18 hours
Experimental: as §2, §3, §4, §5, §6, §7, §8

[16] = system: KP (URMC-2); assay: MIC determination; assay type: cell-based, Klebsiella pneumoniae; details: CAMH broth, 20 μM Apo-Transferrin, 37° C., 18 hours
Experimental: as §2, §3, §4, §5, §6, §7, §8

[17] = system: KP (URMC-3); assay: MIC determination; assay type: cell-based, Klebsiella pneumoniae; details: CAMH broth, 20 μM Apo-Transferrin, 37° C., 18 hours
Experimental: as §2, §3, §4, §5, §6, §7, §8

[18] = system: KP(GJ 5934 TEM-26); assay: MIC determination; assay type: cell-based, Klebsiella pneumoniae; details: CAMH broth, 20 μM Apo-Transferrin, 37° C., 18 hours
Experimental: as §2, §3, §4, §5, §6, §7, §8

[19] = system: KP(JMI KPC-2); assay: MIC determination; assay type: cell-based, Klebsiella pneumoniae; details: CAMH broth, 20 μM Apo-Transferrin, 37° C., 18 hours
Experimental: as §2, §3, §4, §5, §6, §7, §8

[20] = system: KP(ATCC TEM-10/TEM-12); assay type: cell-based, Klebsiella pneumoniae; details: CAMH broth, 20 μM Apo-Transferrin, 37° C., 18 hours
Experimental: as §2, §3, §4, §5, §6, §7, §8

[21] = system: PM (RR -1); assay: MIC determination; assay type: cell-based, Proteus mirabilis; details: CAMH broth, 20 μM Apo-Transferrin, 37° C., 18 hours
Experimental: as §2, §3, §4, §5, §6, §7, §8

[22] = system: ENC (ATCC NDM-1); assay: MIC determination; assay type: cell-based, Enterobacter cloacae; details: CAMH broth, 20 μM Apo-Transferrin, 37° C., 18 hours
Experimental: as §2, §3, §4, §5, §6, §7, §8

[23] = system: Isogenic E. coli J58 strain carrying SHV-1; assay: MIC determination, isogenic E. coli strains; assay type: cell-based; details: Escherichia coli, 18 h, read-out: Mimimum Inhibitory Concentrations, SHV-1
Summary of the method: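 MIC is the lowest compound concentration leaving a transparent well after overnight (18 h) incubation at 37 °C. The test strain was E. coli J53 expressing plasmid-borne SHV-1 beta-lactamase from pBC-SK(+), adjusted to 0.5 McFarland. Compounds were twofold serially diluted, starting at 64 μg/mL, in CAMH broth supplemented with 20 μM apo-transferrin.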

[24] = system: Isogenic E. coli J58 strain carrying KPC-2; assay: MIC determination, isogenic E. coli strains; assay type: cell-based; details: Escherichia coli, 18 h, read-out: Mimimum Inhibitory Concentrations, KPC-2
Summary of the method: (§9)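 Broth microdilution in cation-adjusted Mueller-Hinton broth with 20 μM apo-transferrin, compound at 64 down to […], inoculum set to 0.5 McFarland. E. coli J53 transformed with pBC-SK(+) carrying the synthetic beta-lactamase gene was used. Plates were incubated 18 h at 37 °C; MIC is the lowest concentration giving a clear well.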

[25] = system: Isogenic E. coli J58 strain carrying KPC-3; assay: MIC determination, isogenic E. coli strains; assay type: cell-based; details: Escherichia coli, 18 h, read-out: Mimimum Inhibitory Concentrations, KPC-3
Summary of the method: as §9

[26] = system: Isogenic E. coli J58 strain carrying IMP-1; assay: MIC determination, isogenic E. coli strains; assay type: cell-based; details: Escherichia coli, 18 h, read-out: Mimimum Inhibitory Concentrations, IMP-1
Summary of the method: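 Broth microdilution in cation-adjusted Mueller-Hinton broth with 20 μM apo-transferrin, compound serially diluted two-fold from 64 μg/mL, against E. coli J53 carrying plasmid-borne IMP-1. Inoculum adjusted to 0.5 McFarland; plates incubated 18 h at 37° C. MIC taken as lowest concentration giving a clear well.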

## CC(C)(O/N=C(\C(=O)N[C@@H]1C(=O)N2C(C(=O)O)=C(C=Cc3ccc(C[N+]4(C)CCc5cc(O)c(O)cc5C4)cc3)CS[C@H]12)c1csc(N)n1)C(=O)O (mixture of isomers) [Compound 407, 2-(4-((E/Z)-2-((6R,7R)-7-((Z)-2-(2-aminothiazol-4-yl)-2-(((2-carboxypropan-2-yl)oxy)imino)acetamido)-2-carboxy-8-oxo-5-thia-1-azabicyclo[4.2.0]oct-2-en-3 yl)vinyl)benzyl)-6,7-dihydroxy-2-methyl-1,2,3,4-tetrahydroisoquinolin-2-ium]
[1]
  MIC: 0.06 µg/mL
[2]
  MIC: 0.06 µg/mL
[3]
  Mimimum Inhibitory Concentrations, EC (RR -1): 0.13 microgram/mL
[4]
  Mimimum Inhibitory Concentrations, EC (RR -2): 0.13 microgram/mL
[5]
  MIC: 0.25 µg/mL
[6]
  MIC: 0.25 µg/mL
[7]
  MIC: ≤ 0.06 µg/mL
[8]
  MIC: > 64 µg/mL
[9]
  MIC: 16 µg/mL
[10]
  MIC: > 64 µg/mL
[11]
  MIC: > 64 µg/mL
[12]
  Minimum Inhibitory Concentrations, KP (ATCC KPC-3): 64 microgram/mL
[13]
  Minimum Inhibitory Concentrations, KP (GJ 5659 TEM-26): 2 microgram/mL
[14]
  Mimimum Inhibitory Concentrations, KP (RR -1): 0.5 microgram/mL
[15]
  Minimum Inhibitory Concentrations, KP (URMC-1): 0.13 microgram/mL
[16]
  Minimum Inhibitory Concentrations, KP (URMC-2): 0.25 microgram/mL
[17]
  Minimum Inhibitory Concentrations, KP (URMC-3): 0.13 microgram/mL
[18]
  Minimum Inhibitory Concentrations, KP(GJ 5934 TEM-26): 2 microgram/mL
[19]
  Minimum Inhibitory Concentrations, KP(JMI KPC-2): 16 microgram/mL
[20]
  Minimum Inhibitory Concentrations, KP(ATCC TEM-10/TEM-12): 0.25 microgram/mL
[21]
  Mimimum Inhibitory Concentrations, PM (RR -1): ≤0.06 microgram/mL
[22]
  Mimimum Inhibitory Concentrations, ENC (ATCC NDM-1): >64 microgram/mL
[23]
  MIC: 0.5 µg/mL
[24]
  MIC: 8 µg/mL
[25]
  MIC: 4 µg/mL
[26]
  MIC: 32 µg/mL
